The values below come from patent US7820623B2 (priority 2006, dated 2010).

Data set [1] relates to CD40L on CD4+ T cells in human whole blood. Type of data set: cell-based.
Data set [2] concerns IL-2 production from αCD3 and αCD28 antibody stimulated human PBMCs. Type of data set: cell-based.
For data set [3], the system named is thapsigargin-induced IFN-g production in human whole blood. Type of data set: cell-based.
The conditions of data set [4]: rat, in vivo, iv.
Data set [5] deals with IFNγ production from αCD3 and αCD28 antibody stimulated human PBMCs. Type of data set: cell-based.
The subject of data set [6] is thapsigargin-induced IL-2 production in human whole blood.
Data set [7] has as its system IFNγ production from PMA and αCD3 antibody stimulated human PBMCs. Type of data set: cell-based.
Data set [8] concerns IL-2 production from PMA and αCD3 antibody stimulated human PBMCs. Type of data set: cell-based.
The subject of data set [9] is adoptive transfer EAE model of multiple sclerosis. The note with it: rat, in vivo, sc.
In data set [10] the test system is IL-2R on CD4+ T cells in human whole blood. Type of data set: cell-based.
For data set [11], the target named is HEK 293 cells overexpressing human Kv1.3 (Homo sapiens, UniProt P22001). The experiment in a line: Immunohistochemistry of binding to HEK 293 cells overexpressing human Kv1.3. The following applies: 5 μg/ml peptibody. As to the method:
Immunohistochemistry analysis of Fc-L10-ShK[1-35] binding to HEK 293 cells overexpressing human Kv1.3. HEK 293 cells overexpressing human Kv1.3 (HEK Kv1.3) were obtained from BioFocus plc (Cambridge, UK) and maintained per manufacturer's recommendation. The parental HEK 293 cell line was used as a control. Cells were plated on Poly-D-Lysine 24 well plates (#35-4414; Becton-Dickinson, Bedford, Mass.) and allowed to grow to approximately 70% confluence. HEK KV1.3 were plated at 0.5×10e5 cells/well in 1 ml/well of medium. HEK 293 cells were plated at a density of 1.5×10e5 cells/well in 1 ml/well of medium. Before staining, cells were fixed with formalin (Sigma HT50-1-1 Formalin solution, diluted 1:1 with PBS/0.5% BSA before use) by removing cell growth medium, adding 0.2 ml/well formalin solution and incubating at room temperature for ten minutes. Cells were stained by incubating with 0.2 ml/well of 5 μg/ml Fc-L10-ShK[1-35] in PBS/BSA for 30′ at room temperature. Fc-L10-ShK[1-35] was aspirated and then the cells were washed one time with PBS/0.5% BSA. Detection antibody (Goat F(ab)2 anti-human IgG-phycoerythrin; Southern Biotech Associates, Birmingham, Ala.) was added to the wells at 5 μg/ml in PBS/0.5% BSA and incubated for 30′ at room temperature. Wash cells once with PBS/0.5% BSA and examine using confocal microscopy (LSM 510 Meta Confocal Microscope; Carl Zeiss AG, Germany). […]

The target in data set [12] is fixed HEK 293 cells stably transfected with human Kv1.3 (Homo sapiens, UniProt P22001). The experiment in a line: Whole cell immunoassay (ELISA) on fixed HEK 293 cells overexpressing Kv1.3. Type of data set: binding. As to the method: Our peptibody reagent can be a useful and convenient tool for monitoring Kv1.3 channel expression in patients and have utility in diagnostic applications. The procedure shown in FIG. 34A and FIG. 34B follows.
fixed HEK 293 cells stably transfected with human Kv1.3, sequence (P22001 whole entry): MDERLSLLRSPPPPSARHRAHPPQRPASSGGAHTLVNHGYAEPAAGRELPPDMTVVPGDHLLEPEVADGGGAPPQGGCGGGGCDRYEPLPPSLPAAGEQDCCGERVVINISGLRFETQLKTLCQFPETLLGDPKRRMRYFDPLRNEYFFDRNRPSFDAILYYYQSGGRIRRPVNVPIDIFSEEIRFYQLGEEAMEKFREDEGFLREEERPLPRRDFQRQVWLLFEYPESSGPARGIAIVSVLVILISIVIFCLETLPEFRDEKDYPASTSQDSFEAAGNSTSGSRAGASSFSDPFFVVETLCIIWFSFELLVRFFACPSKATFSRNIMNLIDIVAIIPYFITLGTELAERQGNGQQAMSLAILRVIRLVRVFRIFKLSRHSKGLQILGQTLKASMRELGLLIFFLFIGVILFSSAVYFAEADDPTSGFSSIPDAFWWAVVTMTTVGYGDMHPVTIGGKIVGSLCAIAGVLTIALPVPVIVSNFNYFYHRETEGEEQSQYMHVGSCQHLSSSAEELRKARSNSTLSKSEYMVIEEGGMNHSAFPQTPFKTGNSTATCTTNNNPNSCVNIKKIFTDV
FIG. 34A. A whole cell immunoassay was performed to show binding of intact Fc-L10-ShK[1-35] to Kv1.3 transfected HEK 293 cells (BioFocus plc, Cambridge, UK). Parent HEK 293 cells or HEK Kv1.3 cells were plated at 3×10e4 cells/well in poly-D-Lysine coated ninety-six well plates (#35-4461; Becton-Dickinson, Bedford, Mass.). Cells were fixed with formalin (Sigma HT50-1-1 Formalin solution, diluted 1:1 with PBS/0.5% BSA before use) by removing cell growth medium, adding 0.2 ml/well formalin solution and incubating at room temperature for 25 minutes and then washing one time with 100 μl/well of PBS/0.5% BSA. Wells were blocked by addition of 0.3 ml/well of BSA blocker (50-61-00; KPL 10% BSA Diluent/Blocking Solution, diluted 1:1 with PBS; KPL, Gaithersburg, Md.) followed by incubation at room temperature, with shaking, for 3 hr. Plates were washed 2 times with 1×KP Wash Buffer (50-63-00; KPL). […] Absorbance was read at 450 nm on a Molecular Devices SpectroMax 340 (Sunnyvale, Calif.).
FIG. 34B. […] Absorbances were read at 405 nm after stopping reactions by addition of 0.1 ml/well of 1% SDS.

Data set [13] concerns T cell proliferation in human PBMCs. Description: T cell proliferation (3H-thymidine incorporation) in anti-CD3/anti-CD28 stimulated human PBMCs. Type of data set: cell-based. The following applies: two normal donors. The text has this:
Inhibition of T cell proliferation following anti-CD3 and anti-CD28 antibody stimulation of PBMCs. PBMC's were previously isolated from normal human donor Leukophoresis packs, purified by density gradient centrifugation (Ficoll Hypaque), cryopreserved in CPZ Cryopreservation Medium Complete (INCELL, MCPZF-100 plus 10% DMSO final). PBMC's were thawed (95% viability), washed, and seeded at 2×10^5 cells per well in culture medium (RPMI medium 1640; GIBCO) supplemented with 10% fetal calf serum, 100 U/ml penicillin, […] streptomycin, 2 mM L-glutamine, 100 μM non-essential amino acids, and 20 μM 2-ME) in 96-well flat-bottom tissue culture plates. Cells were pre-incubated with either anti-human CD32 (FcyRII) blocking antibody (per manufacturers instructions EASY SEP Human Biotin Selection Kit #18553, StemCell Technologies Vancouver, BC) or Fc-L10-ShK (100 nM-0.001 nM final) for 45 min. Fc-L10-ShK (100 nM-0.001 nM final) was then added to the cells containing anti-human CD32 blocking antibody while medium was added to the cells containing Fc-L10-ShK. Both sets were incubated for an additional 45 min before stimulating for 48 hr with aCD3/aCD28 (0.2 ng/ml and 100 ng/ml, respectively). Final assay volume was 200 ul. […] Cells were then harvested onto glass fiber filters and radioactivity was measured in a B-scintillation counter.

HEK 293 cells overexpressing human Kv1.3, sequence (P22001 whole entry): as above

With `CC[C@H](C)[C@@H]1NC(=O)[C@@H](NC(=O)[C@H](CO)NC(=O)[C@@H](N)CCCNC(=N)N)CSSC[C@@H](C(=O)O)NC(=O)[C@H]([C@@H](C)O)NC(=O)CNC(=O)[C@@H]2CSSC[C@@H]3NC(=O)[C@H](CCC(N)=O)NC(=O)[C@H](Cc4ccccc4)NC(=O)[C@H](C)NC(=O)[C@H]([C@@H](C)O)NC(=O)[C@H](CSSC[C@H](NC(=O)[C@H](Cc4ccccc4)NC(=O)[C@H](CO)NC(=O)[C@H](CC(C)C)NC(=O)[C@H](CCCNC(=N)N)NC(=O)[C@H](Cc4ccc(O)cc4)NC(=O)[C@H](CCCCN)NC(=O)[C@H](CCSC)NC(=O)[C@H](CO)NC(=O)[C@H](Cc4cnc[nH]4)NC(=O)[C@H](CCCCN)NC3=O)C(=O)N[C@@H](CCCNC(=N)N)C(=O)N[C@@H](CCCCN)C(=O)N[C@@H]([C@@H](C)O)C(=O)N2)NC(=O)[C@H](CCCNC(=N)N)NC(=O)[C@H](CO)NC(=O)[C@H](CCCCN)NC(=O)[C@@H]2CCCN2C(=O)[C@H]([C@@H](C)CC)NC(=O)[C@H]([C@@H](C)O)NC(=O)[C@H](CC(=O)O)NC1=O` [ShK, reference compound], the “thapsigargin-induced upregulation of CD40L on T cells” value in data set [1] was “suppressed”. Besides, the “inhibition of IL-2 production” value in data set [2] is recorded as “partial inhibition”. Moreover, the “thapsigargin-induced IFN-g production in human whole blood” value in [3] was “suppressed”. Besides, the “duration of significant suppression of Kv1.3 current (<70 POC) by serum” value in [4] was at most 1 h. Further, the “inhibition of IFNg production” value in [5] is “partial inhibition”. For the same compound, in data set [6], the “thapsigargin-induced IL-2 production in human whole blood” value is listed as “suppressed”. In [7], the “inhibition of IFNγ production” value is given as “partial inhibition”. In addition, the “inhibition of IL-2 production” value in [8] is given as “partial inhibition”. Further, in data set [9], the “body weight lost (average)” value amounted to 30 g; the “disease severity and survival” value was “developed severe disease and died”; the onset of disease came out at 4 days. The “thapsigargin-induced upregulation of the IL-2R on T cells” value in data set [10] is recorded as “suppressed”.

“Fc-L10-ShK[1-35]: Fc region of human IgG1 fused in-frame to L10 linker and a monomer of Kv1.3 inhibitor peptide ShK[1-35]”: the “thapsigargin-induced upregulation of CD40L on T cells” value in data set [1] is reported as “suppressed”. The “staining of cells” value in data set [11] was “stains HEK 293 cells stably transfected with human Kv1.3”. In addition, the “inhibition of IL-2 production” value in data set [2] is given as “nearly complete inhibition”; in data set [8] it was “complete inhibition”. The “enzyme-immunoassay response on fixed Kv1.3 transfected cells” value in [12] is recorded as “dose-dependent increase in response”. In addition, in [5], the “inhibition of IFNg production” value was “nearly complete inhibition”. The “inhibition of IFNγ production” value in data set [7] is reported as “complete inhibition”. Besides, the “inhibition of T cell proliferation” value in data set [13] is reported as “potently inhibits proliferation of T cells in a dose-dependent manner”. Moreover, the “thapsigargin-induced upregulation of the IL-2R on T cells” value in data set [10] is “suppressed”.
